According to ChEMBL document CHEMBL4043090 (Bioorg Med Chem, 2017):

What was measured:
[1] = Cytotoxicity against human MAGI-CCR5 cells assessed as reduction in cell viability after 48 hrs by MTS assay; format: cell-based; settings: read-out: TC50
[2] = tested on: Human immunodeficiency virus 1; test: Antiviral activity against HIV-1 Bal infected in human MAGI-CCR5 cells assessed as reduction in viral infection after 48 hrs by fluorescence based beta-galactosidase reporter gene assay; format: functional, cell-based; settings: for IC50 / IC90: Human immunodeficiency virus 1, Bal, MAGI-CCR5, 48 h
[3] = Therapeutic index, ratio of TC50 for human MAGI-CCR5 cells to IC50 for HIV-1 Bal infected in MAGI-CCR5 cells
PBMC = test: Antiviral activity against HIV-1 Bal infected in human PBMC by MTS assay; format: functional, cell-based
[4] = Cytotoxicity against human PBMC assessed as reduction in cell viability by MTS assay; format: cell-based; settings: read-out: TC50 (the source's name)
[5] = Therapeutic index, ratio of TC50 for human PBMC to IC50 for HIV-1 Bal infected in human PBMC
[6] = Metabolic stability in rat plasma assessed as compound remaining at 100 uM after 1 hr by LC/MS analysis; format: ADME, cell-free; settings: read-out: Stability
[7] = Metabolic stability in rat liver microsomes assessed as compound remaining at 4 uM preincubated for 5 mins followed by NADPH addition measured after 60 mins by LC/MS analysis; format: ADME, microsome; settings: read-out: Stability
[8] = Therapeutic index, ratio of TC50 for human MAGI-CCR5 cells to IC50 for HIV-1 NL4-3 infected in MAGI-CCR5 cells
[9] = tested on: Human immunodeficiency virus 1; format: functional, cell-based; settings: Human immunodeficiency virus 1, A17, MAGI-CCR5, 48 h
[10] = tested on: Human immunodeficiency virus 1; test: microbe, parasite or virus in culture; settings: Human immunodeficiency virus 1, NL4-3, MAGI-CCR5, 48 h
Description: Antiviral activity against wild type HIV-1 NL4-3 infected in human MAGI-CCR5 cells assessed as reduction in viral infection after 48 hrs by fluorescence based beta-galactosidase reporter gene assay

SMILES	CC50 at 48 h [1]	Activity [2]	IC50 [2]	IC90 [2]	TI [3]	IC50 (PBMC)	IC90 (PBMC)	CC50 [4]	TI [5]	remaining at 1 h, 100 µM [6]	remaining at 1 h, 4 µM [7]	TI [8]	IC50 [9]	IC90 [9]	IC50 [10]	IC90 [10]
CC1=C(c2nc(-c3ccc(C#N)cc3)cs2)C(c2ccc(Cl)nc2)NC(=O)N1 (stereo unspecified)	> 100 µM	Dose-dependent effect	480 nM	2.4 µM	208	380 nM	0.94 µM	> 100 µM	263	91.7%	63.4%					
CC1=C(c2nc(-c3ccc(C#N)cc3)cs2)C(c2ccc(O)cc2)NC(=O)N1 (stereo unspecified)	> 10 µM	Dose-dependent effect	40 nM	0.52 µM	250	40 nM	0.12 µM	> 100 µM	2500	100%	100%	765	28 µM	95 µM	60 nM	620 nM
COc1ccc(C2NC(=O)NC(C)=C2c2nc(-c3ccc(C#N)cc3)cs2)cc1 (stereo unspecified)	7 µM	Dose-dependent effect	80 nM	0.37 µM	88	120 nM	0.3 µM	76.6 µM	638	96%	63.1%	110	3.4 µM	24 µM	50 nM	620 nM
CC1=C(c2nc(-c3ccc(C#N)cc3)cs2)C(c2cccc(O)c2)NC(=O)N1 (stereo unspecified)	98 µM	Dose-dependent effect	440 nM	2.1 µM	223	190 nM	0.66 µM	84 µM	442	88.5%	52.4%					
COc1ccc(C2NC(=O)NC(C)=C2c2nc(-c3ccc(C#N)cc3)cs2)cn1 (stereo unspecified)	> 10 µM	Dose-dependent effect	100 nM	0.58 µM	100	120 nM	0.43 µM	> 100 µM	833	100%	69.4%	>313	> 100 µM	> 100 µM	< 320 nM	1900 nM
CC1=C(c2nc(-c3ccc(C#N)cc3)cs2)C(c2cc3ccccc3[nH]2)NC(=O)N1 (stereo unspecified)	50.5 µM	Dose-dependent effect	2100 nM	10.4 µM	24	3500 nM	10.8 µM	69.8 µM	20							
CC1=C(c2nc(-c3ccc(C#N)cc3)cs2)C(c2ccc(Cl)nc2Cl)NC(=O)N1 (stereo unspecified)	> 100 µM	Dose-dependent effect	860 nM	5.8 µM	116	1900 nM	5.7 µM	99.1 µM	52							
CC1=C(c2nc(-c3ccc(C#N)cc3)cs2)C(c2ccc(Br)nc2)NC(=O)N1 (stereo unspecified)	> 100 µM	Dose-dependent effect	350 nM	1.4 µM	286	210 nM	0.57 µM	> 100 µM	476	98.3%	67.6%	>200	> 100 µM	> 100 µM	500 nM	3200 nM
COc1ccc(-c2csc(C3=C(C)NC(=O)NC3c3cccc(O)c3)n2)cc1 (stereo unspecified)	> 100 µM	Dose-dependent effect	66000 nM	> 100 µM	1.5	30000 nM	78 µM	91 µM	3							
CC1=C(c2nc(-c3ccc(C#N)cc3)cs2)C(c2cccnc2F)NC(=O)N1 (stereo unspecified)	> 100 µM	Dose-dependent effect	440 nM	2.6 µM	227	260 nM	0.83 µM	> 100 µM	385							
CC1=C(c2nc(-c3cccc(C#N)c3)cs2)C(c2cccc(O)c2)NC(=O)N1 (stereo unspecified)	51.8 µM	Dose-dependent effect	8700 nM	38.1 µM	6	5000 nM	15.1 µM	74 µM	15							
COc1cccc(C2NC(=O)NC(C)=C2c2nc(-c3ccc(C#N)cc3)cs2)c1 (stereo unspecified)	> 100 µM	Dose-dependent effect	380 nM	1.8 µM	263	560 nM	1.6 µM	> 100 µM	179							
CC1=C(c2nc(-c3ccc(C#N)cc3)cs2)C(c2ccc(F)nc2)NC(=O)N1 (stereo unspecified)	> 100 µM	Dose-dependent effect	1100 nM	5.4 µM	91	590 nM	2 µM	> 100 µM	170	100%	49.4%	>91	> 100 µM	> 100 µM	1100 nM	7600 nM
CC1=C(c2nc(-c3ccc(C#N)cc3)cs2)C(c2cccc(O)c2)NC(=O)N1C (stereo unspecified)	> 100 µM	Dose-dependent effect	2400 nM	13.8 µM	42	3200 nM	8.5 µM	> 100 µM	31							
CC1=C(c2nc(-c3ccc(Br)cc3)cs2)C(c2cccc(O)c2)NC(=O)N1 (stereo unspecified)	60 µM	Dose-dependent effect	2300 nM	15 µM	26	3600 nM	12 µM	56 µM	16							
CC1=C(c2nc(-c3cccc(C#N)c3)cs2)C(c2cccc(O)c2)NC(=O)N1C (stereo unspecified)	> 100 µM	Dose-dependent effect	55400 nM	89.2 µM	1.8	14500 nM	59.6 µM	64.2 µM	4.4							
COc1ncccc1C1NC(=O)NC(C)=C1c1nc(-c2ccc(C#N)cc2)cs1 (stereo unspecified)	> 100 µM	Dose-dependent effect	3800 nM	66 µM	26	2600 nM	7.3 µM	> 100 µM	39							
CC1=C(c2nc(-c3ccc(C#N)cc3)cs2)C(c2ccc(C(F)(F)F)nc2)NC(=O)N1 (stereo unspecified)	> 100 µM	Dose-dependent effect	1100 nM	7.3 µM	91	1200 nM	4.6 µM	> 100 µM	83			>116	> 100 µM	> 100 µM	860 nM	7700 nM
